{"source": "patent US7612107B2", "about": "“Treatment and inhibition of disease conditions using flexible heteroarotinoids” (The Board of Regents of the University of Oklahoma, priority 2005, dated 2009)", "key": {"dorsal skin": {"tested_on": "dorsal skin", "test": "Topical irritancy in Skh hairless mice", "assay_type": "in vivo", "conditions": "topical, dorsal skin, 4 days, 2-log dose range", "method": "Female Skh hairless mice, 6-8 weeks old, were treated topically on the dorsal skin for 4 days over a 2-log concentration dose range with various compounds. Retinoic acid receptor-Hets were evaluated in A, while retinoic acid receptor-independent Flex-Hets were evaluated in B. Daily flaking and abrasion scores were combined to calculate a single cutaneous toxicity score for each mouse. Each treatment group consisted of 4 mice, and group averages were used to plot cutaneous toxicity against doses of the compounds.\nTopical irritancy was evaluated according to published procedures (29). Briefly, female Skh hairless mice, 6-8 weeks old, were treated topically on the dorsal skin for 4 days over a 2-log concentration dose range with various compounds. Daily flaking and abrasion scores were combined to calculate a single cutaneous toxicity score for each mouse. Each treatment group consists of 4 mice, and group averages are used to plot cutaneous toxicity against dose of the retinoid compound."}, "C6 glioma": {"tested_on": "C6 glioma", "test": "Rat glioma (brain cancer) model, MRI", "assay_type": "in vivo", "conditions": "oral 60 mg/kg/day; vs untreated control", "method": "FIG. 9. SHetA2 inhibition of Angiogenesis. C6 glioma cells were injected into the brains of 2 rats. One week later, one rat was gavaged with 60 mg/kg/day SHetA2 on each Monday, Wednesday and Friday. Blood vessels were imaged by MRI.\nFIG. 10. […] C6 glioma cells were injected into the brains of 2 rats. One week later, one rat was gavaged with 60 mg/kg/day SHetA2 on each Monday, Wednesday and Friday. The blood flow was measured by MRI imaging.\nFIG. 11. SHetA2 inhibition of glioma tumor growth. C6 glioma cells were injected into the brains of 2 rats. One week later, one rat was gavaged with 60 mg/kg/day SHetA2 on each Monday, Wednesday and Friday. The tumor size was measured by MRI imaging.\nIn this in vivo model, glioma cells are injected into the brains of rats and the growth of the tumor and development of blood vessels in the tumor is measured by magnetic resonance imaging (MRI)."}, "NF-κB": {"tested_on": "NF-κB", "test": "NF-κB luciferase reporter assay in A2780 cultures", "assay_type": "cell-based", "conditions": "10 μM SHetA2", "method": "FIG. 15. SHetA2 Inhibition of NF-κB. A2780 cultures were transfected with the NF-κB reporter and treated with 10 μM SHetA2 for the indicated times. Cell lysates were prepared and evaluated for luciferase activity which was normalized for protein concentration.\nBecause both TP and TSP4 have DNA binding sites for the NFκB transcription factor in their promoter, the ability of SHetA2 to inhibit activity of NF-κB in ovarian cancer cultures was tested using a luciferase reporter plasmid driven by NF-κB sites in the promoter. […] Inhibition increased over the 4 hour evaluation time (FIG. 15)."}, "[1]": {"tested_on": "organotypic cultures of normal endometrial cells", "test": "Chemoprevention in DMBA-treated endometrial organotypic cultures", "assay_type": "cell-based", "conditions": "histology and karyometric analysis", "from_the_text": "Untreated: The specimen is cellular with both surface and mid-gel cells presence in abundance. Two cell types are clearly present. One appears to be stromal. The nuclei are thin and spindle shaped and the cytoplasm is similar. When cut in cross-section the nuclei are very small and round and hyperchromatic. The other cells have large, oval to almost boxcar nuclei with small nucleoli and abundant cytoplasm. Numerous mitosis are present. The epithelial cells are almost syncitial in nature and appear to cling to one another. With DMBA Carcinogen: The specimen is cellular. The cells present have lost their cytoplasm. There is more pleomorphism of the cells and many are very hyperchromatic. Mitoses are very numerous-approximately 2× the number in untreated. Cells no longer are together but are distinct one from another. Stromal cells intermix with the epithelial cells. […]\nFIG. 19 illustrates a typical experiment in which organotypic cultures of normal endometrial cells were treated with a carcinogen called DMBA and developed the cancer phenotype. […] All segmented nuclei were then subjected to texture feature extraction using TICAS software, resulting in 95 texture features for each nucleus that were subjected to quantitative analysis."}}, "data": [{"smiles": "CC1(C)CC(C)(C)c2cc(NC(=S)Nc3ccc([N+](=O)[O-])cc3)ccc2S1", "note": "[SHetA2]", "values": [{"measurement": "Topical irritancy (cutaneous toxicity score)", "setting": "dorsal skin", "result": "did not induce topical irritancy"}, {"measurement": "Angiogenesis of glioma tumors (MRI)", "setting": "C6 glioma", "result": "inhibited the angiogenesis"}, {"measurement": "Growth of glioma tumors (MRI)", "setting": "C6 glioma", "result": "inhibited the angiogenesis and growth of the tumors"}, {"measurement": "Time to inhibition of NF-κB activity", "setting": "NF-κB", "result": "≤ 30", "unit": "min"}, {"measurement": "Development of the cancer phenotype after DMBA carcinogen", "setting": "[1]", "result": "prevented the development of this phenotype"}]}]}
